Where two headings read alike, the source gives them in different places.
Key:
[1] = target: histidine-tagged recombinant human TrkA, cytoplasmic domain (Homo sapiens (Human), UniProt P04629); assay: TrkA ELISA Assay; type: biochemical; conditions: read-out: TrkA Elisa Enzyme Assay IC50; note: 2.5 nM TrkA
Experimental: An enzyme-linked immunosorbant assay (ELISA) was used to assess TrkA kinase activity in the presence of inhibitors. Immulon 4HBX 384-well microtiter plates (Thermo part #8755) were coated with a 0.025 mg/mL solution of poly (Glu, Ala, Tyr; 6:3:1; Sigma P3899). […] The assay buffer consisted of 25 mM MOPS pH 7.5, 0.005% (v/v) Triton X-100 and 5 mM MgCl2. The reaction mixture was removed from the plate by washing with PBS containing 0.1% (v/v) Tween 20. The phosphorylated reaction product was detected using 0.2 μg/mL of a phosphotyrosine specific monoclonal antibody (clone PY20) conjugated to horseradish peroxidase in conjunction with the TMB Peroxidase Substrate System (KPL). After the addition of 1M phosphoric acid, the chromogenic substrate color intensity was quantitated via absorbance at 450 nm. IC50 values were calculated using either a 4 or 5-parameter logistic curve fit.
Table 1 provides averaged IC50 values for compounds of the invention when tested in this assay.

[2] = not given; remark: listed apart in the source
[3] = target: His-tagged recombinant human TrkA (cytoplasmic domain) (Homo sapiens (Human), UniProt P04629); assay: TrkA Binding Assay (LanthaScreen Eu Kinase Binding Assay)
Experimental: The ability of a compound to bind to TrkA was measured by Invitrogen's LanthaScreen™ Eu Kinase Binding Assay. […] After a 60-minute incubation at 22° C., the reaction was measured using the EnVision via TR-FRET dual wavelength detection, and the POC was calculated from the emission ratio. The compound dose response data was fit to a 4-parameter logistic model and IC50 was defined as the concentration of compound at 50 POC.

His-tagged recombinant human TrkA (cytoplasmic domain), sequence (P04629 440-796): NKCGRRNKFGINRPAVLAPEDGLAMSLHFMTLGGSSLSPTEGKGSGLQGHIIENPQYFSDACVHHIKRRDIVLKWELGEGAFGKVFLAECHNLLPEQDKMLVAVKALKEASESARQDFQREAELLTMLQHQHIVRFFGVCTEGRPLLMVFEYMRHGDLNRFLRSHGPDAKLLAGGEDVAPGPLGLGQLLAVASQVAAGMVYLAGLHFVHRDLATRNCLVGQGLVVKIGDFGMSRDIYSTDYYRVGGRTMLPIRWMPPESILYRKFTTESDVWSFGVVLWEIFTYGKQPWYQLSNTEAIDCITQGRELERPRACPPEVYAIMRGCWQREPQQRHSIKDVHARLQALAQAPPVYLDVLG
histidine-tagged recombinant human TrkA, cytoplasmic domain, sequence (P04629 440-796): as above

| IC50 [1] [nM] | IC50 [3] [nM] | SMILES | ring closure, isolated yield (from NCCCn1cc(F)cc([C@H]2CCCN2c2ccn3ncc(C(=O)O)c3n2)c1=O, amide bond, 14-membered ring, EDCI/HOBt/TEA, DMF/DCM 1:2, 26.7 mM, 6.0 h) [%] | ring closure, yield of all isomers ([2]; from NCCCn1cc(F)cc([C@H]2CCCN2c2ccn3ncc(C(=O)O)c3n2)c1=O, amide bond, EDCI/HOBt, DCM, 26.7 mM, 25.0 °C, 6.0 h) [%] | ring closure, isolated yield (from O=C(NC[C@H](O)CCl)c1cnn2ccc(N3CCC[C@@H]3c3cc(F)c[nH]c3=O)nc12, other bond, 14-membered ring, Cs2CO3, DMF, […], 85.0 °C, 2.0 h) [%] | ring closure, yield of all isomers ([2]; from O=C(NC[C@H](O)CCl)c1cnn2ccc(N3CCC[C@@H]3c3cc(F)c[nH]c3=O)nc12, amine bond, Cs2CO3, DMF, […], 85.0 °C, 2.0 h) [%] | ring closure, isolated yield (from O=C(Nc1ccnn1CCO)c1cnn2ccc(N3CCC[C@@H]3c3cc(F)cnc3O)nc12, ether bond, 15-membered ring, DEAD/PPh3, THF, 14.3 mM, 2 steps) [%] | ring closure, yield of all isomers ([2]; from COc1ncc(F)cc1[C@H]1CCCN1c1ccn2ncc(C(=O)Nc3ccnn3CCO[Si](c3ccccc3)(c3ccccc3)C(C)(C)C)c2n1, ether bond, DEAD/PPh3, THF, 14.25 mM, 25.0 °C, 18.0 h, 2 steps) [%] |
| --- | --- | --- | --- | --- | --- | --- | --- | --- |
| 1 to 100 | 1 to 100 | O=C1NCCCn2cc(F)cc(c2=O)[C@H]2CCCN2c2ccn3ncc1c3n2 [Example 1, (6R)-9-fluoro-2,11,15,19,20,23-hexaazapentacyclo[15.5.2.1^7,11.0^2,6.0^20,24]pentacosa-1(23),7,9,17(24),18,21-hexaene-16,25-dione] | 39 | 39 | – | – | – | – |
| 1 to 100 | 1 to 100 | O=C1NC[C@H](O)Cn2cc(F)cc(c2=O)[C@H]2CCCN2c2ccn3ncc1c3n2 [Example 5, (6R,13S)-9-fluoro-13-hydroxy-2,11,15,19,20,23-hexaazapentacyclo-[15.5.2.1^7,11.0^2,6.0^20,24]pentacosa-1(23),7,9,17(24),18,21-hexaene-16,25-dione] | – | – | 12 | 27 | – | – |
| – | 1 to 100 | O=C1Nc2ccnn2CCOc2ncc(F)cc2[C@H]2CCCN2c2ccn3ncc1c3n2 [Example 38, (6R)-9-fluoro-13-oxa-2,11,16,17,21,25,26,29-octaazahexacyclo [21.5.2.0^2,6.0^7,12.0^16,20.0^26,30]triaconta-1(29),7,9,11,17,19,23(30),24,27-nonaen-22-one] | – | – | – | – | 1.5 | 1.5 |
